Source: patent US8633183B2 (priority 2010, dated 2014)

biological target: PI3Kalpha (Homo sapiens (Human), UniProt P42336); settings: read-out: IC50 PI3K
Sequence (P42336 whole entry, looked up): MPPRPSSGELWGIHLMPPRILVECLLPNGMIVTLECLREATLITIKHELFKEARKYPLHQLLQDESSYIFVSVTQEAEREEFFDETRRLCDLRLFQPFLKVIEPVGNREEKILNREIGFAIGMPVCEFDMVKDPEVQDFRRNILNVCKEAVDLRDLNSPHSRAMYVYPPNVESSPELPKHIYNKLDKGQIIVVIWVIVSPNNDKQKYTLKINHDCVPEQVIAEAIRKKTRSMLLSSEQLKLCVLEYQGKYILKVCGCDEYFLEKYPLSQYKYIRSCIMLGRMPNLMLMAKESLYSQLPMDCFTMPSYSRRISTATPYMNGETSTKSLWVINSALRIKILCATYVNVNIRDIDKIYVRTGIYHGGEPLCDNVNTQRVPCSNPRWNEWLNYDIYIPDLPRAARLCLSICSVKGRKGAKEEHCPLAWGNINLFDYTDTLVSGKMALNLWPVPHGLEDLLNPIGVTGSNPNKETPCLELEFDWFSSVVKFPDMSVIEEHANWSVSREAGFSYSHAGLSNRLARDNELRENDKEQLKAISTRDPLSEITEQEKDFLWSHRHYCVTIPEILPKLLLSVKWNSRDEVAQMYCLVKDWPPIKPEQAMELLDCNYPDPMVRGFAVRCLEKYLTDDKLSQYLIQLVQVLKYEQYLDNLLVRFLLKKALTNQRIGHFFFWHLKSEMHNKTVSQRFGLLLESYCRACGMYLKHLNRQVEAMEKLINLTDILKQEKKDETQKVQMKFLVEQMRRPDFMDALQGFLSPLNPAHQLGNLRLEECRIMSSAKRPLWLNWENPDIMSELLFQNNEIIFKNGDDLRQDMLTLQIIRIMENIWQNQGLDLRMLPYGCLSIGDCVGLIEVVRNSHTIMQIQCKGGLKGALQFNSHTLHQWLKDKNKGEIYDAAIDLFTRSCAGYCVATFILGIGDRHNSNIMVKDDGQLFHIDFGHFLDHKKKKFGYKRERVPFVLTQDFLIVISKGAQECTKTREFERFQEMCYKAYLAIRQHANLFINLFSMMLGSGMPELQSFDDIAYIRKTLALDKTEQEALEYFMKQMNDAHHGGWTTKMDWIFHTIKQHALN

Going from `CCc1ncnc(-c2cc(F)c(C(=O)N3CCN(C4CCOCC4)CC3)c(F)c2)c1C#Cc1ccc(NC)nc1` [Example E-216] to `CCc1ncnc(-c2cc(F)c(C(=O)N3CCN(C=O)CC3)c(F)c2)c1C#Cc1ccc(NC)nc1` [Example E-219], the IC50 falls from 466 nM to 163 nM (2.9-fold).

First: CCc1ncnc(-c2cc(F)c(C(=O)N3CCN(CC(F)F)CC3)c(F)c2)c1C#Cc1ccc(NC)nc1 [Example E-217]
Second: CCc1ncnc(-c2cc(F)c(C(=O)N3CCN(CCC#N)CC3)c(F)c2)c1C#Cc1ccc(NC)nc1 [Example E-221]
The IC50 of the first is 1.5-fold higher: 327 nM for the first, 213 nM for the second.

`CCc1ncnc(-c2cc(F)c(C(=O)N3CCC(C)(O)CC3)c(F)c2)c1C#Cc1ccc(NC)nc1` [Example E-218] and `CCc1ncnc(-c2cc(F)c(C(=O)N3CCC(CO)CC3)c(F)c2)c1C#Cc1ccc(NC)nc1` [Example E-220] are within 1.5-fold of each other in IC50: 362 nM for the first, 293 nM for the second.

Going from `CCc1ncnc(-c2ccc(C(=O)N3CCN(C(C)C)CC3)c(OC(F)(F)F)c2)c1C#Cc1ccc(N)nc1` [Example E-222] to `CCc1ncnc(-c2ccc(C(=O)N3CCN(C(C)C)CC3)c(C(F)(F)F)c2)c1C#Cc1ccc(N)nc1` [Example E-230], the IC50 falls from 530 nM to 279 nM (1.9-fold). The second is the more potent here.

`CCc1ncnc(-c2ccc(C(=O)N3CCN4CCC[C@H]4C3)c(OC(F)(F)F)c2)c1C#Cc1ccc(N)nc1` [Example E-223] and `CCc1ncnc(-c2ccc(C(=O)N3CCN(C)CC3)c(OC(F)(F)F)c2)c1C#Cc1ccc(N)nc1` [Example E-225] are within 1.5-fold of each other in IC50: 157 nM for the first, 224 nM for the second.

First: CCc1ncnc(-c2ccc(C(=O)N3CC[C@@H](N(C)C)C3)c(OC(F)(F)F)c2)c1C#Cc1ccc(N)nc1 [Example E-224]
Second: CCc1ncnc(-c2ccc(C(=O)N3CCN(CC)CC3)c(OC(F)(F)F)c2)c1C#Cc1ccc(N)nc1 [Example E-226]
The IC50 of the first is 2.1-fold higher: 402 nM for the first, 196 nM for the second.

Compared with `CCc1ncnc(-c2ccc(C(=O)N3CCC(N4CCOCC4)CC3)c(OC(F)(F)F)c2)c1C#Cc1ccc(N)nc1` [Example E-228], `CCNc1ccc(C#Cc2c(CC)ncnc2-c2ccc(C(=O)N3CCC(N4CCOCC4)CC3)c(F)c2)cn1` [Example E-259] is 1.7-fold lower in IC50: 356 nM for the first, 209 nM for the second.

`CCc1ncnc(-c2ccc(C(=O)N3CCN(C)CC3)c(C(F)(F)F)c2)c1C#Cc1ccc(N)nc1` [Example E-229] and `CCc1ncnc(-c2ccc(C(=O)N3CCN(CC)CC3)c(C(F)(F)F)c2)c1C#Cc1ccc(N)nc1` [Example E-231] are within 1.5-fold of each other in IC50: 174 nM for the first, 185 nM for the second.

`CCc1ncnc(-c2ccc(C(=O)N3CCC(C(C)(C)O)CC3)c(C(F)(F)F)c2)c1C#Cc1ccc(N)nc1` [Example E-232] and `CCc1ncnc(-c2cc(F)c(C(=O)N3CCC(C(C)(C)O)CC3)c(Cl)c2)c1C#Cc1ccc(N)nc1` [Example E-237] are within 1.5-fold of each other in IC50: 142 nM for the first, 121 nM for the second.

First: CCc1ncnc(-c2cc(F)c(C(=O)N3CCN(C)CC3)c(Cl)c2)c1C#Cc1ccc(N)nc1 [Example E-233]
Second: CCc1ncnc(-c2cc(F)c(C(=O)N3CCN(CC)CC3)c(Cl)c2)c1C#Cc1ccc(N)nc1 [Example E-235]
The IC50 of the first is 2-fold lower: 89.8 nM for the first, 178 nM for the second. The first is the more potent here.

First: CCc1ncnc(-c2cc(F)c(C(=O)N3CCN(C(C)C)CC3)c(Cl)c2)c1C#Cc1ccc(N)nc1 [Example E-234]
Second: CCc1ncnc(-c2cc(F)c(C(=O)N3CCN(CC(C)(C)O)CC3)c(Cl)c2)c1C#Cc1ccc(N)nc1 [Example E-240]
The IC50 of the first is 2.3-fold higher: 263 nM for the first, 115 nM for the second. The second is the more potent here.

`CCc1ncnc(-c2cc(F)c(C(=O)N3CCC(N4CCOCC4)CC3)c(Cl)c2)c1C#Cc1ccc(N)nc1` [Example E-236] and `CCc1ncnc(-c2cc(F)c(C(=O)N3CCN(C4COC4)CC3)c(Cl)c2)c1C#Cc1ccc(N)nc1` [Example E-282] are within 1.5-fold of each other in IC50: 141 nM for the first, 173 nM for the second.

`CCc1ncnc(-c2cc(F)c(C(=O)N3CCN4CCC[C@H]4C3)c(Cl)c2)c1C#Cc1ccc(N)nc1` [Example E-238] and `CCc1ncnc(-c2cc(F)c(C(=O)N3CCC(CO)CC3)c(Cl)c2)c1C#Cc1ccc(N)nc1` [Example E-242] are within 1.5-fold of each other in IC50: 175 nM for the first, 120 nM for the second.

Compared with `CCc1ncnc(-c2cc(F)c(C(=O)N3CCN(C)C(=O)C3)c(Cl)c2)c1C#Cc1ccc(N)nc1` [Example E-239], `CCc1ncnc(-c2cc(F)c(C(=O)N3CC4(CN(C)C4)C3)c(Cl)c2)c1C#Cc1ccc(N)nc1` [Example E-289] is 6.5-fold higher in IC50: 46.2 nM for the first, 298 nM for the second. The first is the more potent here.

First: CCc1ncnc(-c2cc(F)c(C(=O)N3CCC(C(C)O)CC3)c(Cl)c2)c1C#Cc1ccc(N)nc1 (centres unmarked) [Example E-241]
Second: CCc1ncnc(-c2cc(F)c(C(=O)N3CCC(CN)CC3)c(Cl)c2)c1C#Cc1ccc(N)nc1 [Example E-285]
The IC50 of the first is 7.1-fold lower: 91.5 nM for the first, 647 nM for the second. The first is the more potent here.

First: CCc1ncnc(-c2cc(F)c(C(=O)N3CCN(CCC#N)CC3)c(Cl)c2)c1C#Cc1ccc(N)nc1 [Example E-243]
Second: CCc1ncnc(-c2cc(F)c(C(=O)N3CCN(CCN)CC3)c(Cl)c2)c1C#Cc1ccc(N)nc1 [Example E-286]
The IC50 of the first is 4.8-fold lower: 110 nM for the first, 527 nM for the second.

First: CCc1ncnc(-c2ccc(C(=O)N3CCN(CCNS(C)(=O)=O)CC3)c(F)c2)c1C#Cc1ccc(N)nc1 [Example E-246]
Second: CCc1ncnc(-c2ccc(C(=O)N3CCN(CCNS(C)(=O)=O)CC3)c(Cl)c2)c1C#Cc1ccc(N)nc1 [Example E-253]
The IC50 of the first is 2.7-fold higher: 81.3 nM for the first, 30.6 nM for the second. The second is the more potent here.

Compared with `CCc1ncnc(-c2ccc(C(=O)N3CCn4c(C)cnc4C3)c(F)c2)c1C#Cc1ccc(N)nc1` [Example E-247], `CCc1ncnc(-c2ccc(C(=O)N3CCn4c(C)cnc4C3)c(Cl)c2)c1C#Cc1ccc(N)nc1` [Example E-254] is 3-fold lower in IC50: 95.4 nM for the first, 31.6 nM for the second.

First: CCc1ncnc(-c2ccc(C(=O)N3CCn4cnnc4C3)c(F)c2)c1C#Cc1ccc(N)nc1 [Example E-248]
Second: CCc1ncnc(-c2ccc(C(=O)N3CCn4cnnc4C3)c(Cl)c2)c1C#Cc1ccc(N)nc1 [Example E-255]
The IC50 of the first is 11-fold higher: 50.8 nM for the first, 4.83 nM for the second. The second is the more potent here.

First: CCc1ncnc(-c2ccc(C(=O)N3CCn4ccnc4C3)c(F)c2)c1C#Cc1ccc(N)nc1 [Example E-249]
Second: CCc1ncnc(-c2ccc(C(=O)N3CCn4ccnc4C3)c(Cl)c2)c1C#Cc1ccc(N)nc1 [Example E-256]
The IC50 of the first is 2.6-fold higher: 60.5 nM for the first, 23 nM for the second.

First: CCc1ncnc(-c2ccc(C(=O)N3CCN(CCCS(C)(=O)=O)CC3)c(F)c2)c1C#Cc1ccc(N)nc1 [Example E-250]
Second: CCc1ncnc(-c2ccc(C(=O)N3CCN(CCCS(C)(=O)=O)CC3)c(Cl)c2)c1C#Cc1ccc(N)nc1 [Example E-257]
The IC50 of the first is 1.6-fold higher: 92.2 nM for the first, 58.3 nM for the second. The second is the more potent here.

First: CCc1ncnc(-c2ccc(C(=O)N3CCC4(CC3)CNC4)c(Cl)c2)c1C#Cc1ccc(N)nc1 [Example E-251]
Second: CCc1ncnc(-c2ccc(C(=O)N3CCC4(CC3)CNC4)c(F)c2)c1C#Cc1ccc(N)nc1 [Example E-268]
The IC50 of the first is 2.7-fold lower: 90.7 nM for the first, 242 nM for the second. The first is the more potent here.

First: CCc1ncnc(-c2ccc(C(=O)N3CCN(C4CCC4)CC3)c(Cl)c2)c1C#Cc1ccc(N)nc1 [Example E-252]
Second: CCc1ncnc(-c2ccc(C(=O)N3CCN(C4COC4)CC3)c(Cl)c2)c1C#Cc1ccc(N)nc1 [Example E-273]
The IC50 of the first is 2.5-fold lower: 48.2 nM for the first, 119 nM for the second.

`CCNc1ccc(C#Cc2c(CC)ncnc2-c2ccc(C(=O)N3CCN(CCCS(C)(=O)=O)CC3)c(F)c2)cn1` [Example E-258] and `CCc1ncnc(-c2ccc(C(=O)N3CCN(CC(C)O)CC3)c(F)c2)c1C#Cc1ccc(N)nc1` (centres unmarked) [Example E-296] are within 1.5-fold of each other in IC50: 110 nM for the first, 122 nM for the second.

`CCNc1ccc(C#Cc2c(CC)ncnc2-c2ccc(C(=O)N3CCn4ccnc4C3)c(F)c2)cn1` [Example E-260] and `CCNc1ccc(C#Cc2c(CC)ncnc2-c2ccc(C(=O)N3CCn4cnnc4C3)c(F)c2)cn1` [Example E-261] are within 1.5-fold of each other in IC50: 63.8 nM for the first, 44.3 nM for the second.

First: CCNc1ccc(C#Cc2c(CC)ncnc2-c2ccc(C(=O)N3CCn4c(C)cnc4C3)c(F)c2)cn1 [Example E-262]
Second: CCNc1ccc(C#Cc2c(CC)ncnc2-c2ccc(C(=O)N3CCC4(CC3)COC4)c(F)c2)cn1 [Example E-263]
The IC50 of the first is 1.5-fold lower: 134 nM for the first, 204 nM for the second.

`CCNc1ccc(C#Cc2c(CC)ncnc2-c2ccc(C(=O)N3CCC4(CC3)CN(C(=O)OC(C)(C)C)C4)c(F)c2)cn1` [Example E-266] and `CCNc1ccc(C#Cc2c(CC)ncnc2-c2ccc(C(=O)N3CC4(CN(C(=O)OC(C)(C)C)C4)C3)c(F)c2)cn1` [Example E-267] are within 1.5-fold of each other in IC50: 560 nM for the first, 421 nM for the second.

`CCc1ncnc(-c2ccc(C(=O)N3CC4(CNC4)C3)c(F)c2)c1C#Cc1ccc(N)nc1` [Example E-269] and `CCc1ncnc(-c2ccc(C(=O)N3CC4(CNC4)C3)c(Cl)c2)c1C#Cc1ccc(N)nc1` [Example E-270] are within 1.5-fold of each other in IC50: 252 nM for the first, 328 nM for the second.

`CCc1ncnc(-c2ccc(C(=O)N3CCN(C4COC4)CC3)c(F)c2)c1C#Cc1ccc(N)nc1` [Example E-271] and `CCc1ncnc(-c2cc(F)c(C(=O)N3CCN(C4COC4)CC3)c(F)c2)c1C#Cc1ccc(N)nc1` [Example E-275] are within 1.5-fold of each other in IC50: 113 nM for the first, 141 nM for the second.

`CCc1ncnc(-c2ccc(C(=O)N3CCC(CN(C)C)CC3)c(F)c2)c1C#Cc1ccc(N)nc1` [Example E-272] and `CCc1ncnc(-c2ccc(C(=O)N3CCC(CN(C)C)CC3)c(Cl)c2)c1C#Cc1ccc(N)nc1` [Example E-274] are within 1.5-fold of each other in IC50: 475 nM for the first, 445 nM for the second.

First: CCc1ncnc(-c2ccc(C(=O)N3CCN(C4COC4)CC3)c(F)c2)c1C#Cc1ccc(N)nc1C [Example E-280]
Second: CCc1ncnc(-c2ccc(C(=O)N3CCC(CN(C)C)CC3)c(F)c2)c1C#Cc1ccc(N)nc1C [Example E-281]
The IC50 of the first is 4.4-fold lower: 153 nM for the first, 679 nM for the second. The first is the more potent here.

Going from `CCc1ncnc(-c2cc(F)c(C(=O)N3CCC(CN(C)C)CC3)c(Cl)c2)c1C#Cc1ccc(N)nc1` [Example E-283] to `CCc1ncnc(-c2cc(F)c(C(=O)N3CCN(C(C)CO)CC3)c(F)c2)c1C#Cc1ccc(N)nc1` (centres unmarked) [Example E-299], the IC50 falls from 446 nM to 160 nM (2.8-fold). The second is the more potent here.

`CCc1ncnc(-c2ccc(C(=O)N3CCN(CCN)CC3)c(Cl)c2)c1C#Cc1ccc(N)nc1` [Example E-284] and `CCc1ncnc(-c2ccc(C(=O)N3CCN(C(C)CO)CC3)c(F)c2)c1C#Cc1ccc(N)nc1` (centres unmarked) [Example E-292] are within 1.5-fold of each other in IC50: 181 nM for the first, 212 nM for the second.

`CCc1ncnc(-c2ccc(C(=O)N3CC4(CN(C)C4)C3)c(F)c2)c1C#Cc1ccc(N)nc1` [Example E-287] and `CCc1ncnc(-c2ccc(C(=O)N3CCN(C(C)COC)CC3)c(F)c2)c1C#Cc1ccc(N)nc1` (centres unmarked) [Example E-291] are within 1.5-fold of each other in IC50: 288 nM for the first, 220 nM for the second.

`CCc1ncnc(-c2ccc(C(=O)N3CCN(Cc4cc(C)no4)CC3)c(F)c2)c1C#Cc1ccc(N)nc1` [Example E-290] and `CCc1ncnc(-c2ccc(C(=O)N3CCN(C4CCCC4O)CC3)c(F)c2)c1C#Cc1ccc(N)nc1` (centres unmarked) [Example E-294] are within 1.5-fold of each other in IC50: 200 nM for the first, 137 nM for the second.

`CCc1ncnc(-c2cc(F)c(C(=O)N3CCN(C(C)COC)CC3)c(F)c2)c1C#Cc1ccc(N)nc1` (centres unmarked) [Example E-298] gave an IC50 of 187 nM.
